# Experimental data from PMC11642016 (International Journal of Molecular Sciences, 2024).
# Several values for one entry are separate records, joined by “and”; a condition that tells them apart may be missing. Equal entries are not always repeated. Where two headings read alike, the source gives them in different places.
# Legend:
# [1] = system: PANC-1 cells; test: CellTiter-Glo luminescent cell viability assay, PANC-1; details: for Cell Viability (% of Control) 2.8 µM / Cell Viability (% of Control) 8.3 µM / Cell Viability (% of Control) 25 µM: PANC-1; for Cell Viability (% of Control) 2.8 µM / Cell Viability (% of Control) 8.3 µM / Cell Viability (% of Control) 25 µM / viability at 2.8 µM / viability at 8.3 µM / viability at 25 µM: mean ± SD, n = 2; for viability at 2.8 µM: read-out: Cell Viability (% of Control) 2.8 µM, PANC-1; for viability at 8.3 µM: read-out: Cell Viability (% of Control) 8.3 µM, PANC-1; for viability at 25 µM: read-out: Cell Viability (% of Control) 25 µM, PANC-1
# Experimental: (§1) Primary fibroblast cultures were prepared from human skin biopsies and maintained in DMEM supplemented with 10% FBS, 1% penicillin-streptomycin, and 1% MEM Non-Essential Amino Acids Solution (Thermo Fisher Scientific). […] All cell lines were cultured in a humidified atmosphere at 37 °C and 5% CO2, passaged twice a week, and the experiments were performed on cells between passage 5 and 15. The cell lines were routinely screened for the absence of mycoplasma infection (DAPI staining).
# (§2) The effects of the synthesized compounds on cell viability were measured using the CellTiter-Glo® luminescent cell viability assay (Promega, Madison, WI, USA), according to the manufacturer’s instructions. Briefly, cells were seeded onto a flat-bottomed, white 96-well plate (BRANDplates, cat. no.: 781965)), with the following densities: PANC-1: 750 cells/well, Fadu: 2000 cells/well, primary fibroblasts: 2000 cells/well, HEK293T WT: 1000 cells/well, HEK293T CLPP^−/−: 2500 cells/well. After seeding, cells were incubated for a further 48 h before treatment. Cells were treated with the compounds for 72 h. Three concentrations (25.0 µM; 8.3 µM; 2.8 µM) were applied during the initial cell viability screening, while for the determination of dose–response curves, 1.5-fold serially diluted compound concentrations were applied (range: 26 µM–0.7 µM). After treatment, the luminescence signal was recorded using a microplate reader (BioTek Synergy 2 Multi-Mode Reader, BioTek, Winooski, VT, USA).
# (§3) Data analysis was performed using GraphPad Prism 9.5.0 software (GraphPad Software, San Diego, CA, USA). […] The dose–response curves were generated by four-parameter nonlinear regression, and the IC50 values were determined as the means ± SEM of the best-fit values of 3 independent measurements. The R^2 values were consistently above 0.93, indicating a strong fit of the model to the experimental data (Supplementary S.89). […] Dunnett’s post hoc test was applied to adjust for multiple comparisons, minimizing the likelihood of false positive results. Assumptions for ANOVA, including normality (assessed via QQ plots) and homogeneity of variance (tested using the Brown–Forsythe test), were verified. The following significance levels were applied: * p < 0.05, ** p < 0.01, *** p < 0.001, **** p < 0.0001. […] The tumor selectivity of the compounds was quantitatively characterized by the selectivity index (SI). This parameter was calculated as the ratio of the average best-fit IC50 value for primary fibroblasts and the best-fit IC50 value for the corresponding tumor cells (PANC-1 or Fadu).
# [2] = system: Fadu cells; test: CellTiter-Glo luminescent cell viability assay, Fadu; details: for Cell Viability (% of Control) 2.8 µM / Cell Viability (% of Control) 8.3 µM / Cell Viability (% of Control) 25 µM: Fadu; for Cell Viability (% of Control) 2.8 µM / Cell Viability (% of Control) 8.3 µM / Cell Viability (% of Control) 25 µM / viability at 2.8 µM / viability at 8.3 µM / viability at 25 µM: mean ± SD, n = 2; for viability at 2.8 µM: read-out: Cell Viability (% of Control) 2.8 µM, Fadu; for viability at 8.3 µM: read-out: Cell Viability (% of Control) 8.3 µM, Fadu; for viability at 25 µM: read-out: Cell Viability (% of Control) 25 µM, Fadu
# [3] = system: PANC-1 and Fadu cells; test: CellTiter-Glo viability, statements covering both cancer cell lines; format: cell-based, human; details: for eradication of cancer cells at 8.3 µM: both PANC-1 and Fadu, first-set screening
# [4] = system: non-tumorous primary fibroblast cells; test: CellTiter-Glo luminescent cell viability assay, primary fibroblasts; details: 72 h; for Primer fibroblast Cell viability (% of controll): dose–response, individual replicates
# Experimental: as §1, §2, §3
# [5] = as above; details: human, primary skin fibroblasts (non-tumorous), Primer fibroblast Cell viability (% of controll), 72 h, dose–response, individual replicates
# Experimental: as §1, §2, §3
# [6] = Homo sapiens, PANC-1, 72 h, 72 h, first-set screening
# [7] = Homo sapiens, PANC-1, 72 h, 72 h, second-set screening
# [8] = Homo sapiens, FaDu, 72 h, 72 h, first-set screening
# [9] = Homo sapiens, FaDu, 72 h, 72 h, second-set screening
# [10] = 0.7 μM, 72 h, dose–response, individual replicates
# [11] = 1 μM, 72 h, dose–response, individual replicates
# [12] = 2.3 μM, 72 h, dose–response, individual replicates
# [13] = 3.4 μM, 72 h, dose–response, individual replicates
# [14] = 5.1 μM, 72 h, dose–response, individual replicates
# [15] = 7.7 μM, 72 h, dose–response, individual replicates
# [16] = 17.3 μM, 72 h, dose–response, individual replicates
# [17] = 26 μM, 72 h, dose–response, individual replicates
compound,measurement,setting,value
NCC#Cc1cccc(CN2C(=O)C3=C(CCN(Cc4ccc(-n5cc(-[c-]6cccc6)nn5)cc4)C3)N3CCN=C23)c1.[Fe+2].c1cc[cH-]c1 [2a],Cell Viability (% of Control) 2.8 µM,"[1]; 72 h, first-set screening",92 ± 2 % of Control
same,Cell Viability (% of Control) 2.8 µM,"[1]; 72 h, second-set screening",117 ± 4 % of Control
same,Cell Viability (% of Control) 8.3 µM,"[1]; 72 h, first-set screening",0 ± 0 % of Control
same,Cell Viability (% of Control) 8.3 µM,"[1]; 72 h, second-set screening",92 ± 14 % of Control
same,Cell Viability (% of Control) 25 µM,"[1]; 72 h, first-set screening",0 ± 0 % of Control
same,Cell Viability (% of Control) 25 µM,"[1]; 72 h, second-set screening",0 ± 0 % of Control
same,Cell Viability (% of Control) 2.8 µM,"[2]; 72 h, first-set screening",107 ± 5 % of Control
same,Cell Viability (% of Control) 2.8 µM,"[2]; 72 h, second-set screening",114 ± 8 % of Control
same,Cell Viability (% of Control) 8.3 µM,"[2]; 72 h, first-set screening",3 ± 0 % of Control
same,Cell Viability (% of Control) 8.3 µM,"[2]; 72 h, second-set screening",56 ± 9 % of Control
same,Cell Viability (% of Control) 25 µM,"[2]; 72 h, first-set screening",0 ± 0 % of Control
same,Cell Viability (% of Control) 25 µM,"[2]; 72 h, second-set screening",0 ± 0 % of Control
same,eradication of cancer cells at 8.3 µM,[3],practically complete eradication of both types of cancer cells
NCC#Cc1cccc(CN2C(=O)C3=C(CCN(Cc4ccc(-n5cc(-c6ccccc6)nn5)cc4)C3)N3CCN=C23)c1 [2b],viability at 2.8 µM,[1]; [6],107 ± 1%
same,viability at 2.8 µM,[1]; [7],113 ± 3%
same,viability at 8.3 µM,[1]; [6],0%
same,viability at 8.3 µM,[1]; [7],0%
same,viability at 25 µM,[1]; [6],0%
same,viability at 25 µM,[1]; [7],0%
same,viability at 2.8 µM,[2]; [8],102 ± 8%
same,viability at 2.8 µM,[2]; [9],117 ± 7%
same,viability at 8.3 µM,[2]; [8],0%
same,viability at 8.3 µM,[2]; [9],27 ± 12%
same,viability at 25 µM,[2]; [8],0%
same,viability at 25 µM,[2]; [9],0%
same,eradication of cancer cells at 8.3 µM,[3],practically complete eradication of both types of cancer cells
same,viability at 25 µM,"[3]; Homo sapiens, 25 µM, in either of the cancer cell lines, read-out: drop in viability at 25 µM",0 to 1%
CNCC#Cc1cccc(CN2C(=O)C3=C(CCN(Cc4ccc(-n5cc(-c6cc(F)cc(F)c6)nn5)cc4)C3)N3CCN=C23)c1 [43c],PANC-1 Cell viability (% of controll),[1]; [10],110 % of controll and 102 % of controll
same,PANC-1 Cell viability (% of controll),[1]; [11],99 % of controll and 105 % of controll
same,PANC-1 Cell viability (% of controll),"[1]; 1.5 μM, 72 h, dose–response, individual replicates",103 % of controll
same,PANC-1 Cell viability (% of controll),[1]; [12],80 % of controll and 82 % of controll
same,PANC-1 Cell viability (% of controll),[1]; [13],5 % of controll and 8 % of controll
same,PANC-1 Cell viability (% of controll),[1]; [14],0 % of controll
same,PANC-1 Cell viability (% of controll),[1]; [15],0 % of controll
same,PANC-1 Cell viability (% of controll),[1]; [16],0 % of controll
same,PANC-1 Cell viability (% of controll),[1]; [17],0 % of controll
same,IC50,"[1]; Homo sapiens, PANC-1, 72 h, read-out: IC50 Value ± SEM PANC-1, 72 h treatment, best-fit values, n = 3",2.6 ± 0.03 µM
same,viability at 0.7 µM,"[1]; Homo sapiens, PANC-1, 72 h, read-out: PANC-1 Cell viability (% of controll), 0.7 μM, 72 h, dose–response, individual replicates",104%
same,viability at 1 µM,"[1]; Homo sapiens, PANC-1, 72 h, read-out: PANC-1 Cell viability (% of controll), 1 μM, 72 h, dose–response, individual replicates",104%
same,viability at 1.5 µM,"[1]; Homo sapiens, PANC-1, 72 h, read-out: PANC-1 Cell viability (% of controll), 1.5 μM, 72 h, dose–response, individual replicates",100%
same,viability at 2.3 µM,"[1]; Homo sapiens, PANC-1, 72 h, read-out: PANC-1 Cell viability (% of controll), 2.3 μM, 72 h, dose–response, individual replicates",89%
same,viability at 3.4 µM,"[1]; Homo sapiens, PANC-1, 72 h, read-out: PANC-1 Cell viability (% of controll), 3.4 μM, 72 h, dose–response, individual replicates",6%
same,viability at 5.1 µM,"[1]; Homo sapiens, PANC-1, 72 h, read-out: PANC-1 Cell viability (% of controll), 5.1 μM, 72 h, dose–response, individual replicates",0%
same,viability at 7.7 µM,"[1]; Homo sapiens, PANC-1, 72 h, read-out: PANC-1 Cell viability (% of controll), 7.7 μM, 72 h, dose–response, individual replicates",0%
same,viability at 17.3 µM,"[1]; Homo sapiens, PANC-1, 72 h, read-out: PANC-1 Cell viability (% of controll), 17.3 μM, 72 h, dose–response, individual replicates",0%
same,viability at 26 µM,"[1]; Homo sapiens, PANC-1, 72 h, read-out: PANC-1 Cell viability (% of controll), 26 μM, 72 h, dose–response, individual replicates",0%
same,IC50,"[1]; Homo sapiens, PANC-1, read-out: PANC-1 IC50 values, Mean, mean of independently fitted replicate IC50 values (Supplement S.6)",2.63 µM
same,Selectivity Index (SI) Fibroblast/PANC-1,[1]; ratio of mean best-fit IC50 for primary fibroblasts and best-fit IC50 for PANC-1,1.4
same,Primer fibroblast Cell viability (% of controll),[4]; 0.7 μM,98 % of controll and 102 % of controll
same,Primer fibroblast Cell viability (% of controll),[4]; 1 μM,104 % of controll and 106 % of controll
same,Primer fibroblast Cell viability (% of controll),[4]; 1.5 μM,99 % of controll and 95 % of controll and 118 % of controll
same,Primer fibroblast Cell viability (% of controll),[4]; 2.3 μM,97 % of controll and 98 % of controll
same,Primer fibroblast Cell viability (% of controll),[4]; 3.4 μM,95 % of controll and 99 % of controll
same,Primer fibroblast Cell viability (% of controll),[4]; 5.1 μM,0 % of controll
same,Primer fibroblast Cell viability (% of controll),[4]; 7.7 μM,0 % of controll
same,Primer fibroblast Cell viability (% of controll),[4]; 17.3 μM,0 % of controll
same,Primer fibroblast Cell viability (% of controll),[4]; 26 μM,0 % of controll
same,IC50,"[4]; Homo sapiens, Fibroblast, read-out: IC50 Value ± SEM Primary Fibroblast, 72 h treatment, best-fit values, n = 3",3.7 ± 1.73 µM
same,"viability at 72 h, 0.7 µM",[5]; 0.7 μM,91%
same,"viability at 72 h, 1 µM",[5]; 1 μM,92%
same,"viability at 72 h, 2.3 µM",[5]; 2.3 μM,103%
same,"viability at 72 h, 3.4 µM",[5]; 3.4 μM,80%
same,"viability at 72 h, 5.1 µM",[5]; 5.1 μM,0%
same,"viability at 72 h, 7.7 µM",[5]; 7.7 μM,0%
same,"viability at 72 h, 17.3 µM",[5]; 17.3 μM,0%
same,"viability at 72 h, 26 µM",[5]; 26 μM,0%
same,Fadu Cell viability (% of controll),[2]; [10],99 % of controll and 100 % of controll
same,Fadu Cell viability (% of controll),[2]; [11],102 % of controll and 93 % of controll
same,Fadu Cell viability (% of controll),[2]; [12],90 % of controll and 79 % of controll
same,Fadu Cell viability (% of controll),[2]; [13],79 % of controll and 59 % of controll and 42 % of controll
same,Fadu Cell viability (% of controll),[2]; [14],0 % of controll
same,Fadu Cell viability (% of controll),[2]; [15],0 % of controll
same,Fadu Cell viability (% of controll),[2]; [16],0 % of controll
same,Fadu Cell viability (% of controll),[2]; [17],0 % of controll
same,viability at 0.7 µM,"[2]; Homo sapiens, FaDu, 72 h, read-out: Fadu Cell viability (% of controll), 0.7 μM, 72 h, dose–response, individual replicates",94%
same,viability at 1 µM,"[2]; Homo sapiens, FaDu, 72 h, read-out: Fadu Cell viability (% of controll), 1 μM, 72 h, dose–response, individual replicates",97%
same,viability at 1.5 µM,"[2]; Homo sapiens, FaDu, 72 h, read-out: Fadu Cell viability (% of controll), 1.5 μM, 72 h, dose–response, individual replicates",90%
same,viability at 2.3 µM,"[2]; Homo sapiens, FaDu, 72 h, read-out: Fadu Cell viability (% of controll), 2.3 μM, 72 h, dose–response, individual replicates",89%
same,viability at 5.1 µM,"[2]; Homo sapiens, FaDu, 72 h, read-out: Fadu Cell viability (% of controll), 5.1 μM, 72 h, dose–response, individual replicates",0%
same,viability at 7.7 µM,"[2]; Homo sapiens, FaDu, 72 h, read-out: Fadu Cell viability (% of controll), 7.7 μM, 72 h, dose–response, individual replicates",0%
same,viability at 17.3 µM,"[2]; Homo sapiens, FaDu, 72 h, read-out: Fadu Cell viability (% of controll), 17.3 μM, 72 h, dose–response, individual replicates",0%
same,viability at 26 µM,"[2]; Homo sapiens, FaDu, 72 h, read-out: Fadu Cell viability (% of controll), 26 μM, 72 h, dose–response, individual replicates",0%
same,IC50,"[2]; Homo sapiens, FaDu, 72 h, read-out: IC50 Value ± SEM Fadu, 72 h treatment, best-fit values, n = 3",3.6 ± 0.09 µM
same,IC50,"[2]; Homo sapiens, FaDu, read-out: Fadu IC50 values, Mean, mean of independently fitted replicate IC50 values (Supplement S.6)",3.48 µM
same,Selectivity Index (SI) Fibroblast/Fadu,[2]; ratio of mean best-fit IC50 for primary fibroblasts and best-fit IC50 for Fadu,1.0
